# Test results published in patent US20150045366A1, “SPRAY DRIED FORMULATIONS” (Gilead Sciences, Inc., priority 2012, published 2015).
# Experiment: Hygroscopicity: weight gain and moisture induced phase transition in humidity-controlled desiccator
# Assay type: physicochemical
# Procedure: Hygroscopicity of the compositions of invention were measured by placing approximately 20 to 50 mg of the sample in an uncapped scintillation vial. The vial was stored at ambient temperature in a Pyrex brand desiccator (VWR, International, West Chester, Pa.). The humidity within the desiccator was controlled at 55% relative humidity and 75% relative humidity using saturated aqueous solutions of […] and sodium chloride, respectively. The relative humidity was confirmed using a digital hygrometer pen (VWR International, West Chester, Pa.). The weight gain for all the samples was determined after 24 hours; it was not determined whether equilibrium was reached after that period. Visual observation of moisture induced phase transition was also noted.
smiles,measurement,setting,value
"CC(C)c1nc(CN(C)C(=O)N[C@@H](CCN2CCOCC2)C(=O)N[C@H](CC[C@H](Cc2ccccc2)NC(=O)OCc2cncs2)Cc2ccccc2)cs1 [Compound Free base, thiazol-5-ylmethyl (2R,5R)-5-((S)-2-(3-((2-isopropylthiazol-4-yl)methyl)-3-methylureido)-4-morpholinobutanamido)-1,6-diphenylhexan-2-ylcarbamate]",Weight gain at 55% RH,"55% relative humidity, ambient temperature, after 24 hours",1.9%
same,Weight gain at 75% RH,"75% relative humidity, ambient temperature, after 24 hours",3.7%
same,Phase transition (at 55% RH),"visual observation of moisture induced phase transition, 55% RH, 24 hours",yes
same,Phase transition (at 75% RH),"visual observation of moisture induced phase transition, 75% RH, 24 hours",yes
